In patent US20160303156A1 (priority 2014, published 2016):
Where a name gives a salt, the structure may show the parent alone. Marks after values point to notes of the source that are not given here.

How the values were obtained:
[1] = system: excretion of phenol red (secretory function of the respiratory tract); assay: Effect on excretion of phenol red in mice; type: in vivo, Kunming mice; conditions: for Phenol red concentration: oral gavage 2 days, trachea wash 30 min after i.p. phenol red, n = 10
Description: Kunming mice, female:male 1:1, weight 30-40 g, available from Guangdong Medical Laboratory Animal Center. […] Hitachi 3010 UV and visible spectrophotometer. […] After 30 min, the mice were sacrificed, and the trachea was detached. A section of the trachea from the thyroid cartilage to a branch of the trachea was excised, and placed in a test tube containing 3 ml of saline, to which 0.1 ml of a 15% sodium bicarbonate solution was then added. After centrifugation, the supernatant was taken and measured for the OD value at 546 nm. The phenol red content was calculated from a phenol red standard curve.

[2] = system: ovalbumin induced atopic cough (cough variant asthma); assay: Capsaicin induced cough in ovalbumin induced atopic cough (cough variant asthma) model; type: in vivo, Hartley guinea pig; conditions: ovalbumin-challenged guinea pigs, 7 days dosing, 50 μmol/L capsaicin 1 hr after last dose, coughs in 10 min, n = 10
Description: (§1) 2.2 Modeling: except for the normal control group, the guinea pigs in the remaining groups were challenged by intraperitoneally injecting cyclophosphamide at a dosage of 30 mg/kg at day 1, intraperitoneally injecting 1 mL of a suspension containing 2 mg ovalbumin and 100 mg aluminium hydroxide at day 3, and injecting 1 mL of a suspension containing 0.01 mg ovalbumin and 100 mg aluminium hydroxide after 3 weeks. The guinea pigs in the normal control group were intraperitoneally injected with 1 mL of saline. After 3 weeks, all the animals for modeling were challenged by nebulization of a 1% ovalbumin solution for 90 s, and the animals in the normal control group inhaled saline for 90 s by nebulization.
(§2) The cough of guinea pig were counted as follows. 1 hr after the last dose, the guinea pigs were placed in a Buxco cough recorder, and induced to cough by using 1 mL of 50 μmol/L capsaicin, and the cough counts in 10 min (including the nebulization time) were recorded.

[3] = system: inflammatory cells in bronchial alveolar lavage fluid; assay: Differential leukocyte counts in bronchial alveolar lavage fluid, ovalbumin cough variant asthma model; type: in vivo, Hartley guinea pig; conditions: BALF
Description: as §1, §2
2.5 Bronchoalveolar lavage and differential leukocyte counts in bronchial alveolar lavage fluid (BALF): After AR determination, the guinea pigs were anesthetized with 30 mg/kg of pentobarbital sodium. Then, the neck skin was cut, and a median incision was made on the trachea, in which a tracheal cannula was inserted. Bronchoalveolar lavage was performed with 5 mL of saline. This was repeated 3 times, and the bronchial alveolar lavage fluid was collected. All the bronchial alveolar lavage fluid was centrifuged at 4° C. and 1500 rpm for 10 min, and the supernatant was stored at −80° C. for later use.

[4] = system: acemecholine (MeCh) induced airway hyperresponsiveness; assay: Airway responsiveness (Penh) under MeCh challenge in ovalbumin cough variant asthma model; type: in vivo, Hartley guinea pig; conditions: Penh % relative to normal saline challenge, n = 10
Description: as §1, §2
2.4 Determination of airway responsiveness (AR) in guinea pig: 24 hrs after cough determination, the enhanced pause (Penh) of guinea pig was determined in the Buxco whole body plethysmograph, and the variation in Penh after challenge by nebulization of acemecholine (MeCh) was measured.
The acemecholine (MeCh) concentrations used for challenging were respectively, from low to high, 100 mg/L, 200 mg/L, 400 mg/L, 800 mg/L, and 1600 mg/L. The average Penh upon challenge with each level of MeCh was recorded, and converted into percentages (Penh %) relative to the Penh value upon challenge with normal saline (NS), which was used as an evaluation criterion for AR.

[5] = system: citric acid induced cough; assay: Inhibition on citric acid induced cough in guinea pig; type: in vivo, Hartley guinea pigs
Description: 1.1 Test animals: qualified Hartley guinea pigs, weight 250-300 g, female:male 1:1, available from Guangdong Medical Laboratory Animal Center.
1.3 Instrument: YLS-8A cough and asthma inducing instrument (a product available from Equipment Station of Shandong Academy of Medical Sciences).
The guinea pigs in each group were administered by oral gavage at a dosage of 0.5 ml/100 g of body weight, and equal volume of saline was given to the animals in the blank control group. 1 h after administration by oral gavage, the animals received spray of citric acid for 7 min. After the spray was completed, the cough counts were observed and recorded in ten minutes from the start of the spray (the typical cough is loud and clear and often accompanied by a forward rush).

[6] = Effect of naringin in combination with other drugs; conditions: used in combination with naringin

Nc1c(Br)cc(Br)cc1CN[C@H]1CC[C@H](O)CC1 [Ambroxol, ambroxol]
Phenol red concentration [1]: 1.55 ± 0.46 ^ μg/ml

C[C@@H]1O[C@@H](O[C@H]2[C@H](Oc3cc(O)c4c(c3)O[C@H](c3ccc(O)cc3)CC4=O)O[C@H](CO)[C@@H](O)[C@@H]2O)[C@H](O)[C@H](O)[C@H]1O [Naringin, naringin]
Cough counts [2]: 12.9 ± 4.3 ^
Effect on excretion of phenol red / sputum reducing effect (in words) [1]: obviously enhance the excretion of phenol red
Phenol red concentration [1]: 1.64 ± 0.67 ^ μg/ml
Reduction of total leukocyte, lymphocyte, neutrophil and eosinophil counts (in words) [3]: significantly reduce
Lymphocyte counts ([3]; guinea pigs, n = 10): 21.5 ± 3.7** 10^7/L
Neutrophil counts ([3]; guinea pigs, n = 10): 30.1 ± 6.5** 10^7/L
Total leukocyte counts ([3]; guinea pigs, n = 10): 135.5 ± 28.6** 10^7/L
Airway responsiveness under challenge with MeCh ([4]; MeCh 100 mg/L): 276 ± 69
Airway responsiveness under challenge with MeCh ([4]; MeCh 200 mg/L): 783 ± 147
Airway responsiveness under challenge with MeCh ([4]; MeCh 400 mg/L): 857 ± 108
Airway responsiveness under challenge with MeCh ([4]; MeCh 800 mg/L): 1636 ± 169
Airway responsiveness under challenge with MeCh ([4]; MeCh 1600 mg/L): 2749 ± 253
Cough relieving effect (in words) ([5]; citric acid induced cough): obvious cough relieving effect
Cough count ([5]; oral gavage, citric acid spray 7 min 1 h after dosing, coughs in ten minutes, n = 8): 22.4 ± 3.7 ^

CN1CCCC(n2nc(Cc3ccc(Cl)cc3)c3ccccc3c2=O)CC1 (centres unmarked) [azelastine hydrochloride]
Synergistic effect in combination with naringin [6]: no synergistic effect

CN(C)CCC(c1ccc(Cl)cc1)c1ccccn1 (centres unmarked) [chlorpheniramine maleate]
Synergistic effect in combination with naringin [6]: no synergistic effect

Clc1ccc2c(c1)CCc1cccnc1C2=C1CCNCC1 [desloratadine]
Synergistic effect in combination with naringin [6]: no synergistic effect

NC1=NCC2c3ccccc3Cc3ccccc3N12 (centres unmarked) [epinastine hydrochloride]
Synergistic effect in combination with naringin [6]: no synergistic effect

CCOC(=O)N1CCC(=C2c3ccc(Cl)cc3CCc3cccnc32)CC1 [loratadine]
Synergistic effect in combination with naringin [6]: no synergistic effect

CN(c1nccc(=O)[nH]1)C1CCN(c2nc3ccccc3n2Cc2ccc(F)cc2)CC1 [mizolastine]
Synergistic effect in combination with naringin [6]: no synergistic effect

dimenhydrinate hydrochloride
Synergistic effect in combination with naringin [6]: no synergistic effect

theohydramine hydrochloride
Synergistic effect in combination with naringin [6]: no synergistic effect
